Data from US20060069132A1, “Azolecarboxamide herbicides” (priority 2004, published 2006).

Key:
ducksalad = assay: Test B flooded paddy test; type: in vivo, Heteranthera limosa; conditions: 1000 g ai/ha, scale 0 to 100 (0 no effect, 100 complete control)
How it was run: (§1)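 Greenhouse test; postemergence application to plants at 1–4 leaves (2–18 cm); paddy species at 2 leaves; evaluated visually vs controls at 13–15 days; scale 0–100 (100 = complete control).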

wild oat = assay: Test B postemergence herbicide test; type: in vivo, Avena fatua
How it was run: (§2)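 Postemergence plants were sprayed with formulated test chemicals at 2 to 18 cm height (1- to 4-leaf stage); paddy species were grown to the 2-leaf stage. After 13 to 15 days in a greenhouse, injury was rated visually against untreated controls on a 0–100 scale (0 = no effect, 100 = complete control).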

wheat = assay: Test B postemergence herbicide test; type: in vivo, Triticum aestivum; set-up: key to Wheat plant response rating: 0 = no effect, 100 = complete control
How it was run: as §2

velvetleaf = assay: Test B pre-/postemergence herbicide test; type: in vivo, Abutilon theophrasti
How it was run: (§3)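 Evaluation is visual, comparing treated with control plants on a scale where 0 means no effect and 100 means full control. Treatments were preemergence, or postemergence on seedlings 2–18 cm tall, and held 13–15 days in the greenhouse.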

rice [1] = assay: Test B pre-/postemergence herbicide test; type: in vivo, Oryza sativa; conditions: preemergence; for Plant response rating, Rice: 500 g ai/ha, visual rating
How it was run: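 Plants compared with untreated controls 13–15 days post-treatment and given a visual 0–100 injury score. Applications: preemergence to seeds; postemergence at 1- to 4-leaf (2–18 cm); paddy species flooded, 2-leaf stage. Vehicle non-phytotoxic, surfactant included.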

[2] = tested on: small flower umbrella sedge; assay: Test B flooded paddy test; type: in vivo, Cyperus difformis; conditions: 1000 g ai/ha, scale 0 to 100 (0 no effect, 100 complete control)
How it was run: as §1

lambsquarters = assay: Test B pre-/postemergence herbicide test; type: in vivo, Chenopodium album
How it was run: as §3

blackgrass = assay: Test B postemergence herbicide test; type: in vivo, Alopecurus myosuroides
How it was run: as §1

pigweed = assay: Test B pre-/postemergence herbicide test; type: in vivo, Amaranthus retroflexus
How it was run: as §3

rice [3] = assay: Test B flooded paddy test; type: in vivo, Oryza sativa; conditions: 1000 g ai/ha, scale 0 to 100 (0 no effect, 100 complete control)
How it was run: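 Each value is a visual 0–100 response rating taken against controls 13 to 15 days after treatment in the greenhouse. Plants received formulated chemical postemergence at the 1- to 4-leaf stage or, in flooded paddy, at the 2-leaf stage.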

barnyardgrass [4] = assay: Test B flooded paddy test; type: in vivo, Echinochloa crus-galli; conditions: 1000 g ai/ha, scale 0 to 100 (0 no effect, 100 complete control)
How it was run: as §1

Surinam grass = assay: Test B pre-/postemergence herbicide test; type: in vivo, Urochloa decumbens
How it was run: as §3

giant foxtail = assay: Test B pre-/postemergence herbicide test; type: in vivo, Setaria faberi
How it was run: as §3

barnyardgrass [5] = assay: Test B pre-/postemergence herbicide test; type: in vivo, Echinochloa crus-galli
How it was run: (§4)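 Greenhouse pot assay with simultaneous preemergence (treated seed) and postemergence (2–18 cm seedlings) applications of surfactant-containing, non-phytotoxic solvent formulations. Response scored visually 13–15 days later on a 0–100 scale, 100 meaning complete control.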

large crabgrass = assay: Test B pre-/postemergence herbicide test; type: in vivo, Digitaria sanguinalis
How it was run: as §3

morningglory = assay: Test B pre-/postemergence herbicide test; type: in vivo, Ipomoea coccinea
How it was run: as §4

corn = assay: Test B pre-/postemergence herbicide test; type: in vivo, Zea mays
How it was run: as §3

cocklebur = assay: Test B pre-/postemergence herbicide test; type: in vivo, Xanthium strumarium
How it was run: as §4

[6] = 125 g ai/ha; visual rating, scale 0 (no effect) to 100 (complete control); postemergence
[7] = postemergence, 500 g ai/ha; scale 0 to 100, 0 is no effect, 100 is complete control
[8] = 125 g ai/ha; 0 is no effect, 100 is complete control; preemergence
[9] = 0 = no effect, 100 = complete control
[10] = 500 g ai/ha; visual rating, 0 = no effect, 100 = complete control; preemergence
[11] = postemergence, 125 g ai/ha; visual rating, scale 0 (no effect) to 100 (complete control)
[12] = 125 g ai/ha; 0 = no effect, 100 = complete control; preemergence
[13] = postemergence, 500 g ai/ha; visual rating, scale 0 (no effect) to 100 (complete control)

Question: How did the “Ducksalad plant response rating” value (ducksalad) turn out when `CCNC(=O)c1cccc(NC(=O)c2cc(C(C)(C)C)n[nH]2)c1` [Compound 351] was run?
Answer: 0

Question: And the “Oat, Wild plant response rating” value (wild oat; [6])?
Answer: 0

Question: What about the “Oat, Wild plant response rating” value (wild oat; [7]) of the same molecule?
Answer: 0

Question: What about the “Wheat plant response rating” value (wheat; [6]) of the same molecule?
Answer: 0

Question: And the “Wheat plant response rating” value (wheat; [7])?
Answer: 0

Question: What about the “Plant response rating (0 to 100 scale), Velvetleaf” value (velvetleaf; [8]) of the same molecule?
Answer: 0

Question: And the “Velvetleaf plant response rating” value (velvetleaf; [6])?
Answer: 0

Question: And the “Velvetleaf plant response rating” value (velvetleaf; [7])?
Answer: 0

Question: And the “Plant response rating (0 to 100 scale), Rice” value (rice [1]; 125 g ai/ha, 0 is no effect, 100 is complete control)?
Answer: 0

Question: And the “Plant response rating, Rice” value (rice [1]; [9])?
Answer: 0

Question: What about the “Sedge, Umbrella plant response rating” value [2] of the same molecule?
Answer: 0

Question: What about the “Plant response rating (0 to 100 scale), Lambsquarters” value (lambsquarters; [8]) of the same molecule?
Answer: 0

Question: What about the “Lambsquarters plant response rating” value (lambsquarters; [6]) of the same molecule?
Answer: 0

Question: What about the “Plant response rating, Lambsquarters” value (lambsquarters; [10]) of the same molecule?
Answer: 0

Question: And the “Lambsquarters plant response rating” value (lambsquarters; [7])?
Answer: 10

Question: What about the “Blackgrass plant response rating” value (blackgrass; [6]) of the same molecule?
Answer: 0

Question: And the “Blackgrass plant response rating” value (blackgrass; [7])?
Answer: 0

Question: What about the “Plant response rating (0 to 100 scale), Pigweed” value (pigweed; [8]) of the same molecule?
Answer: 0

Question: And the “Pigweed plant response rating” value (pigweed; [6])?
Answer: 0

Question: What about the “Plant response rating, Pigweed” value (pigweed; [10]) of the same molecule?
Answer: 0

Question: What about the “Pigweed plant response rating” value (pigweed; [7]) of the same molecule?
Answer: 50

Question: And the “Rice plant response rating” value (rice [3])?
Answer: 0

Question: What about the “Barnyardgrass plant response rating” value (barnyardgrass [4]) of the same molecule?
Answer: 0

Question: And the “Plant response rating (0 to 100 scale), Surinam Grass” value (Surinam grass; [8])?
Answer: 0

Question: What about the “Surinam Grass plant response rating” value (Surinam grass; [6]) of the same molecule?
Answer: 0

Question: What about the “Plant response rating, Surinam Grass” value (Surinam grass; [10]) of the same molecule?
Answer: 0

Question: And the “Surinam Grass plant response rating” value (Surinam grass; [7])?
Answer: 0

Question: What about the “Plant response rating (0 to 100 scale), Foxtail, Giant” value (giant foxtail; [8]) of the same molecule?
Answer: 0

Question: And the “Foxtail, Giant plant response rating” value (giant foxtail; [6])?
Answer: 0

Question: And the “Plant response rating, Foxtail, Giant” value (giant foxtail; [10])?
Answer: 0

Question: And the “Foxtail, Giant plant response rating” value (giant foxtail; [7])?
Answer: 0

Question: What about the “Plant response rating (0 to 100 scale), Barnyardgrass” value (barnyardgrass [5]; [8]) of the same molecule?
Answer: 0

Question: What about the “Barnyardgrass plant response rating” value (barnyardgrass [5]; [6]) of the same molecule?
Answer: 0

Question: What about the “Plant response rating, Barnyardgrass” value (barnyardgrass [5]; [10]) of the same molecule?
Answer: 0

Question: What about the “Barnyardgrass plant response rating” value (barnyardgrass [5]; [7]) of the same molecule?
Answer: 0

Question: What about the “Plant response rating (0 to 100 scale), Crabgrass, Large” value (large crabgrass; [8]) of the same molecule?
Answer: 0

Question: And the “Crabgrass, Large plant response rating” value (large crabgrass; [6])?
Answer: 0

Question: And the “Plant response rating, Crabgrass, Large” value (large crabgrass; [10])?
Answer: 0

Question: What about the “Crabgrass, Large plant response rating” value (large crabgrass; [7]) of the same molecule?
Answer: 10

Question: And the “Plant response rating (0 to 100 scale), Morningglory” value (morningglory; [8])?
Answer: 0

Question: What about the “Morningglory plant response rating” value (morningglory; [6]) of the same molecule?
Answer: 0

Question: What about the “Plant response rating, Morningglory” value (morningglory; [10]) of the same molecule?
Answer: 0

Question: And the “Morningglory plant response rating” value (morningglory; [7])?
Answer: 0

Question: What about the “Plant response rating (0 to 100 scale), Corn” value (corn; [8]) of the same molecule?
Answer: 0

Question: What about the “Corn plant response rating” value (corn; [6]) of the same molecule?
Answer: 0

Question: What about the “Plant response rating, Corn” value (corn; [10]) of the same molecule?
Answer: 0

Question: What about the “Corn plant response rating” value (corn; [7]) of the same molecule?
Answer: 10

Question: What about the “Plant response rating (0 to 100 scale), Cocklebur” value (cocklebur; [8]) of the same molecule?
Answer: 0

Question: And the “Cocklebur plant response rating” value (cocklebur; [6])?
Answer: 0

Question: And the “Plant response rating, Cocklebur” value (cocklebur; [10])?
Answer: 0

Question: And the “Cocklebur plant response rating” value (cocklebur; [7])?
Answer: 0

Question: What does the source list for `C#CCNC(=O)c1cncc(NC(=O)c2cc(C(C)(C)C)nn2CC)c1` [Compound 264]?
Answer: Ducksalad plant response rating (ducksalad): 90; Oat, Wild plant response rating (wild oat; [11]): 0; Oat, Wild plant response rating (wild oat; [7]): 20; Wheat plant response rating (wheat; [11]): 0; Wheat plant response rating (wheat; [7]): 10; Velvetleaf plant response rating (0 to 100 scale) (velvetleaf; [12]): 0; Plant response rating, Velvetleaf (velvetleaf; [10]): 10; Velvetleaf plant response rating (velvetleaf; [11]): 0; Velvetleaf plant response rating (velvetleaf; [7]): 0; Rice plant response rating (0 to 100 scale) (rice [1]; 125 g ai/ha, 0 = no effect, 100 = complete control): 0; Plant response rating, Rice (rice [1]; [9]): 0; Sedge, Umbrella plant response rating [2]: 50; Lambsquarters plant response rating (0 to 100 scale) (lambsquarters; [12]): 0; Plant response rating, Lambsquarters (lambsquarters; [10]): 100; Lambsquarters plant response rating (lambsquarters; [11]): 0; Lambsquarters plant response rating (lambsquarters; [7]): 0; Blackgrass plant response rating (blackgrass; [11]): 0; Blackgrass plant response rating (blackgrass; [13]): 20; Pigweed plant response rating (0 to 100 scale) (pigweed; [12]): 0; Plant response rating, Pigweed (pigweed; [10]): 100; Pigweed plant response rating (pigweed; [11]): 0; Pigweed plant response rating (pigweed; [7]): 0; Rice plant response rating (rice [3]): 0; Barnyardgrass plant response rating (barnyardgrass [4]): 0; Surinam Grass plant response rating (0 to 100 scale) (Surinam grass; [12]): 0; Plant response rating, Surinam Grass (Surinam grass; [10]): 10; Surinam Grass plant response rating (Surinam grass; [11]): 0; Surinam Grass plant response rating (Surinam grass; [7]): 0; Foxtail, Giant plant response rating (0 to 100 scale) (giant foxtail; [12]): 0; Plant response rating, Foxtail, Giant (giant foxtail; [10]): 10; Foxtail, Giant plant response rating (giant foxtail; [11]): 0; Foxtail, Giant plant response rating (giant foxtail; [7]): 0; Barnyardgrass plant response rating (0 to 100 scale) (barnyardgrass [5]; [12]): 0; Plant response rating, Barnyardgrass (barnyardgrass [5]; [10]): 10; Barnyardgrass plant response rating (barnyardgrass [5]; [11]): 0; Barnyardgrass plant response rating (barnyardgrass [5]; [13]): 0; Crabgrass, Large plant response rating (0 to 100 scale) (large crabgrass; [12]): 10; Plant response rating, Crabgrass, Large (large crabgrass; [10]): 50; Crabgrass, Large plant response rating (large crabgrass; [11]): 0; Crabgrass, Large plant response rating (large crabgrass; [7]): 0; Morningglory plant response rating (0 to 100 scale) (morningglory; [12]): 0; Plant response rating, Morningglory (morningglory; [10]): 0; Morningglory plant response rating (morningglory; [11]): 0; Morningglory plant response rating (morningglory; [7]): 0; Corn plant response rating (0 to 100 scale) (corn; [12]): 0; Plant response rating, Corn (corn; [10]): 0; Corn plant response rating (corn; [11]): 0; Corn plant response rating (corn; [7]): 0; Cocklebur plant response rating (0 to 100 scale) (cocklebur; [12]): 0; Plant response rating, Cocklebur (cocklebur; [10]): 0; Cocklebur plant response rating (cocklebur; [11]): 0; Cocklebur plant response rating (cocklebur; [13]): 0
